Test results taken from ChEMBL document CHEMBL5724914, “Linking interpersonal differences in gut microbiota composition and drug biotransformation activity” (2024).

Assay: (§1) The drug is tested on WLS-370 corresponding to human gut metagenome with ENA study accession number: PRJEB37062 and ENA sample accession number: ERS12561793 for biotransformation under anaerobic condition. The drug concentrations were measured over 9 timepoints collected between 0 and 24 hours of incubation by liquid-chromatography-coupled mass spectrometry (LC–MS)
Details: 2 µM
Also: call rule not given here.

Bacterial Biotransformation | SMILES
Compound NOT metabolized | CC[C@H](C)C(=O)O[C@H]1C[C@@H](C)C=C2C=C[C@H](C)[C@H](CC[C@@H]3C[C@@H](O)CC(=O)O3)[C@H]21 [LOVASTATIN]
Compound NOT metabolized | CCOc1ccc(NC(C)=O)cc1 [PHENACETIN]
Compound metabolized | CC(C(=O)O)c1ccc2c(c1)Cc1cccnc1O2 (configuration not stated) [PRANOPROFEN]
Compound metabolized | COc1ccc2[nH]c([S+]([O-])Cc3ncc(C)c(OC)c3C)nc2c1 (configuration not stated) [OMEPRAZOLE]

More lines, now with the values behind:

SMILES | Bacterial Biotransformation
O=C1NCC2(CCN(CCc3ccccc3)CC2)O1 [FENSPIRIDE] | Compound NOT metabolized
CN(C)CC(c1ccc(O)cc1)C1(O)CCCCC1.O=C(O)CCC(=O)O (configuration not stated) [DESVENLAFAXINE SUCCINATE] | Compound NOT metabolized
O=C(CCCN1CCC(O)(c2ccc(Cl)cc2)CC1)c1ccc(F)cc1 [HALOPERIDOL] | Compound NOT metabolized
Clc1ccc(Cn2c(CN3CCCC3)nc3ccccc32)cc1 [CLEMIZOLE] | Compound metabolized

Assay: as §1, with “Z-021” for “WLS-370”, “to” for “to human gut”, “ERS12561820” for “ERS12561793”
Details: 2 µM

Bacterial Biotransformation | SMILES
Compound metabolized | CC[C@H](C)C(=O)O[C@H]1C[C@@H](C)C=C2C=C[C@H](C)[C@H](CC[C@@H]3C[C@@H](O)CC(=O)O3)[C@H]21 [LOVASTATIN]
Compound NOT metabolized | CCOc1ccc(NC(C)=O)cc1 [PHENACETIN]
Compound metabolized | CC(C(=O)O)c1ccc2c(c1)Cc1cccnc1O2 (configuration not stated) [PRANOPROFEN]
Compound NOT metabolized | COc1ccc2[nH]c([S+]([O-])Cc3ncc(C)c(OC)c3C)nc2c1 (configuration not stated) [OMEPRAZOLE]

The remaining lines, values behind:

SMILES | Bacterial Biotransformation
O=C1NCC2(CCN(CCc3ccccc3)CC2)O1 [FENSPIRIDE] | Compound NOT metabolized
CN(C)CC(c1ccc(O)cc1)C1(O)CCCCC1.O=C(O)CCC(=O)O (configuration not stated) [DESVENLAFAXINE SUCCINATE] | Compound NOT metabolized
O=C(CCCN1CCC(O)(c2ccc(Cl)cc2)CC1)c1ccc(F)cc1 [HALOPERIDOL] | Compound NOT metabolized
Clc1ccc(Cn2c(CN3CCCC3)nc3ccccc32)cc1 [CLEMIZOLE] | Compound metabolized

Details: human gut metagenome, 24 h, 2 µM

Bacterial Biotransformation | SMILES
Compound NOT metabolized | CC[C@H](C)C(=O)O[C@H]1C[C@@H](C)C=C2C=C[C@H](C)[C@H](CC[C@@H]3C[C@@H](O)CC(=O)O3)[C@H]21 [LOVASTATIN]
Compound NOT metabolized | CCOc1ccc(NC(C)=O)cc1 [PHENACETIN]
Compound metabolized | CC(C(=O)O)c1ccc2c(c1)Cc1cccnc1O2 (configuration not stated) [PRANOPROFEN]
Compound metabolized | COc1ccc2[nH]c([S+]([O-])Cc3ncc(C)c(OC)c3C)nc2c1 (configuration not stated) [OMEPRAZOLE]

The next lines start with the compound.

SMILES | Bacterial Biotransformation
O=C1NCC2(CCN(CCc3ccccc3)CC2)O1 [FENSPIRIDE] | Compound NOT metabolized
CN(C)CC(c1ccc(O)cc1)C1(O)CCCCC1.O=C(O)CCC(=O)O (configuration not stated) [DESVENLAFAXINE SUCCINATE] | Compound NOT metabolized
O=C(CCCN1CCC(O)(c2ccc(Cl)cc2)CC1)c1ccc(F)cc1 [HALOPERIDOL] | Compound NOT metabolized
Clc1ccc(Cn2c(CN3CCCC3)nc3ccccc32)cc1 [CLEMIZOLE] | Compound metabolized

Assay: as §1, with “Z-003” for “WLS-370”, “pig” for “human”, “ERS12561803” for “ERS12561793”
Details: 2 µM

Bacterial Biotransformation | SMILES
Compound NOT metabolized | CC[C@H](C)C(=O)O[C@H]1C[C@@H](C)C=C2C=C[C@H](C)[C@H](CC[C@@H]3C[C@@H](O)CC(=O)O3)[C@H]21 [LOVASTATIN]
Compound NOT metabolized | CCOc1ccc(NC(C)=O)cc1 [PHENACETIN]
Compound metabolized | CC(C(=O)O)c1ccc2c(c1)Cc1cccnc1O2 (configuration not stated) [PRANOPROFEN]
Compound NOT metabolized | COc1ccc2[nH]c([S+]([O-])Cc3ncc(C)c(OC)c3C)nc2c1 (configuration not stated) [OMEPRAZOLE]

The next lines start with the compound.

SMILES | Bacterial Biotransformation
O=C1NCC2(CCN(CCc3ccccc3)CC2)O1 [FENSPIRIDE] | Compound NOT metabolized
CN(C)CC(c1ccc(O)cc1)C1(O)CCCCC1.O=C(O)CCC(=O)O (configuration not stated) [DESVENLAFAXINE SUCCINATE] | Compound NOT metabolized
O=C(CCCN1CCC(O)(c2ccc(Cl)cc2)CC1)c1ccc(F)cc1 [HALOPERIDOL] | Compound metabolized
Clc1ccc(Cn2c(CN3CCCC3)nc3ccccc32)cc1 [CLEMIZOLE] | Compound metabolized

Assay: as §1, with “WLS-073” for “WLS-370”, “ERS12561749” for “ERS12561793”
Details: 2 µM

Bacterial Biotransformation | SMILES
Compound NOT metabolized | CC[C@H](C)C(=O)O[C@H]1C[C@@H](C)C=C2C=C[C@H](C)[C@H](CC[C@@H]3C[C@@H](O)CC(=O)O3)[C@H]21 [LOVASTATIN]
Compound NOT metabolized | CCOc1ccc(NC(C)=O)cc1 [PHENACETIN]
Compound metabolized | CC(C(=O)O)c1ccc2c(c1)Cc1cccnc1O2 (configuration not stated) [PRANOPROFEN]
Compound metabolized | COc1ccc2[nH]c([S+]([O-])Cc3ncc(C)c(OC)c3C)nc2c1 (configuration not stated) [OMEPRAZOLE]

Further lines, the compound ahead of its results:

SMILES | Bacterial Biotransformation
O=C1NCC2(CCN(CCc3ccccc3)CC2)O1 [FENSPIRIDE] | Compound NOT metabolized
CN(C)CC(c1ccc(O)cc1)C1(O)CCCCC1.O=C(O)CCC(=O)O (configuration not stated) [DESVENLAFAXINE SUCCINATE] | Compound NOT metabolized
O=C(CCCN1CCC(O)(c2ccc(Cl)cc2)CC1)c1ccc(F)cc1 [HALOPERIDOL] | Compound NOT metabolized
Clc1ccc(Cn2c(CN3CCCC3)nc3ccccc32)cc1 [CLEMIZOLE] | Compound NOT metabolized

Details: human gut metagenome, 24 h, 2 µM
Remark: another data set of the same source

Bacterial Biotransformation | SMILES
Compound NOT metabolized | CC[C@H](C)C(=O)O[C@H]1C[C@@H](C)C=C2C=C[C@H](C)[C@H](CC[C@@H]3C[C@@H](O)CC(=O)O3)[C@H]21 [LOVASTATIN]
Compound NOT metabolized | CCOc1ccc(NC(C)=O)cc1 [PHENACETIN]
Compound metabolized | CC(C(=O)O)c1ccc2c(c1)Cc1cccnc1O2 (configuration not stated) [PRANOPROFEN]
Compound metabolized | COc1ccc2[nH]c([S+]([O-])Cc3ncc(C)c(OC)c3C)nc2c1 (configuration not stated) [OMEPRAZOLE]

Further lines, the compound ahead of its results:

SMILES | Bacterial Biotransformation
O=C1NCC2(CCN(CCc3ccccc3)CC2)O1 [FENSPIRIDE] | Compound NOT metabolized
CN(C)CC(c1ccc(O)cc1)C1(O)CCCCC1.O=C(O)CCC(=O)O (configuration not stated) [DESVENLAFAXINE SUCCINATE] | Compound NOT metabolized
O=C(CCCN1CCC(O)(c2ccc(Cl)cc2)CC1)c1ccc(F)cc1 [HALOPERIDOL] | Compound NOT metabolized
Clc1ccc(Cn2c(CN3CCCC3)nc3ccccc32)cc1 [CLEMIZOLE] | Compound metabolized

Assay: as §1, with “WLS-077” for “WLS-370”, “ERS12561750” for “ERS12561793”
Details: 2 µM

Bacterial Biotransformation | SMILES
Compound NOT metabolized | CC[C@H](C)C(=O)O[C@H]1C[C@@H](C)C=C2C=C[C@H](C)[C@H](CC[C@@H]3C[C@@H](O)CC(=O)O3)[C@H]21 [LOVASTATIN]
Compound NOT metabolized | CCOc1ccc(NC(C)=O)cc1 [PHENACETIN]
Compound metabolized | CC(C(=O)O)c1ccc2c(c1)Cc1cccnc1O2 (configuration not stated) [PRANOPROFEN]
Compound metabolized | COc1ccc2[nH]c([S+]([O-])Cc3ncc(C)c(OC)c3C)nc2c1 (configuration not stated) [OMEPRAZOLE]

More lines, now with the values behind:

SMILES | Bacterial Biotransformation
O=C1NCC2(CCN(CCc3ccccc3)CC2)O1 [FENSPIRIDE] | Compound NOT metabolized
CN(C)CC(c1ccc(O)cc1)C1(O)CCCCC1.O=C(O)CCC(=O)O (configuration not stated) [DESVENLAFAXINE SUCCINATE] | Compound NOT metabolized
O=C(CCCN1CCC(O)(c2ccc(Cl)cc2)CC1)c1ccc(F)cc1 [HALOPERIDOL] | Compound NOT metabolized
Clc1ccc(Cn2c(CN3CCCC3)nc3ccccc32)cc1 [CLEMIZOLE] | Compound NOT metabolized

Assay: as §1, with “Z-008” for “WLS-370”, “to” for “to human gut”, “ERS12561808” for “ERS12561793”
Details: 2 µM

Bacterial Biotransformation | SMILES
Compound NOT metabolized | CC[C@H](C)C(=O)O[C@H]1C[C@@H](C)C=C2C=C[C@H](C)[C@H](CC[C@@H]3C[C@@H](O)CC(=O)O3)[C@H]21 [LOVASTATIN]
Compound NOT metabolized | CCOc1ccc(NC(C)=O)cc1 [PHENACETIN]
Compound metabolized | CC(C(=O)O)c1ccc2c(c1)Cc1cccnc1O2 (configuration not stated) [PRANOPROFEN]
Compound metabolized | COc1ccc2[nH]c([S+]([O-])Cc3ncc(C)c(OC)c3C)nc2c1 (configuration not stated) [OMEPRAZOLE]

Second part, the compound before the results:

SMILES | Bacterial Biotransformation
O=C1NCC2(CCN(CCc3ccccc3)CC2)O1 [FENSPIRIDE] | Compound NOT metabolized
CN(C)CC(c1ccc(O)cc1)C1(O)CCCCC1.O=C(O)CCC(=O)O (configuration not stated) [DESVENLAFAXINE SUCCINATE] | Compound NOT metabolized
O=C(CCCN1CCC(O)(c2ccc(Cl)cc2)CC1)c1ccc(F)cc1 [HALOPERIDOL] | Compound NOT metabolized
Clc1ccc(Cn2c(CN3CCCC3)nc3ccccc32)cc1 [CLEMIZOLE] | Compound NOT metabolized

Assay: as §1, with “WLS-090” for “WLS-370”, “ERS12561753” for “ERS12561793”
Details: 2 µM

Bacterial Biotransformation | SMILES
Compound NOT metabolized | CC[C@H](C)C(=O)O[C@H]1C[C@@H](C)C=C2C=C[C@H](C)[C@H](CC[C@@H]3C[C@@H](O)CC(=O)O3)[C@H]21 [LOVASTATIN]
Compound NOT metabolized | CCOc1ccc(NC(C)=O)cc1 [PHENACETIN]
Compound metabolized | CC(C(=O)O)c1ccc2c(c1)Cc1cccnc1O2 (configuration not stated) [PRANOPROFEN]
Compound metabolized | COc1ccc2[nH]c([S+]([O-])Cc3ncc(C)c(OC)c3C)nc2c1 (configuration not stated) [OMEPRAZOLE]

Continued, compound first:

SMILES | Bacterial Biotransformation
O=C1NCC2(CCN(CCc3ccccc3)CC2)O1 [FENSPIRIDE] | Compound NOT metabolized
CN(C)CC(c1ccc(O)cc1)C1(O)CCCCC1.O=C(O)CCC(=O)O (configuration not stated) [DESVENLAFAXINE SUCCINATE] | Compound NOT metabolized
O=C(CCCN1CCC(O)(c2ccc(Cl)cc2)CC1)c1ccc(F)cc1 [HALOPERIDOL] | Compound metabolized
Clc1ccc(Cn2c(CN3CCCC3)nc3ccccc32)cc1 [CLEMIZOLE] | Compound metabolized
